Where a name gives a salt, the structure may show the parent alone. {Cy5} = Cy5 fluorescent dye label
What was measured:
CYP 450 3A2 (rat) = test: Gene expression analysis on ER chip: CYP 450 induction in rat liver; conditions: rat liver cDNA, 80 mg/kg daily on 4 consecutive days, normalized treated/control, mean of 10 replicates
Experimental: (§1) Sensor platforms (dimensions 18×18 mm^2) of the type described with reference to FIG. 2 wee first sonicated twice in chloroform (FLUKA, “purriss.”) and subsequently twice in isopropanol (Merck, “Uvasol”); each for 15 min. The platform were then dried in vacuum and cleaned in a UV cleaner for 30 min (Boeckel industries Inc, model 135500). O-xylene was heated to 75° C. (stirring) and 2% v/v 3-glycidoxypropyl trimethoxysilane (Fluka, “purum”) as well as 0.2% v/v N-ethyldiisopropylamine (Fluka, “purum”) were added to the heated solvent (stirring). The platforms were mounted into racks and then incubated for 7 h in the solution at 75° C. (stirring). Subsequently, the platforms were sonicated three times in fresh acetonitrile (Fluka, “HPLC grade”), each for 15 min. The platforms were then sonicated in a solution of 2% v/v 3-amino-1-propanol (Fluka, “purum”) in acetonitrile for 15 min and then incubated in the same solution over night at room temperature (stirring). Next day, the platforms were first sonicated three times for 15 min in fresh isopropanol (Fluka, “HPLC grade”) and then three times for 15 min in flesh methanol (Merck, “Uvasol”). Finally, the platforms were dried and stored in vacuum. b) Immobilization of Recognition Elements Arrays consisting of 10 different cDNAs (each cDNA 10 replicates: CYP 450 1A1, CYP 450 2B1 EST., CYP 450 2B1, CYP 450 2B2, CYP 450 3A1 human, CYP 450 3A2, CYP 450 4A1, β-actin, GAPDH, external standard) were printed on the platforms with an ink-jet printer (Microdrop GmbH, Norderstedt, Germany). The concentration of the cDNA solutions was 50 ng/μL. The diameter (10 ink-jet droplets/position) was about 250 μm and pitch of the spots was about 500 μm. Therefore, the overall dimension of the 10×10 arrays was about 5×5 mm^2. The arrays were printed in the centre of the platforms with the dimensions (18×18 mm^2). Subsequently, the platforms were incubated over night in a closed container in saturated water vapor atmosphere. Next day, the incubated chips can be baked for a defined period, say 1 minute at 80° C.

CYP 450 1A1 (rat) = test: as above; conditions: rat liver cDNA, 80 mg/kg daily on 4 consecutive days, normalized treated/control, mean of 10 replicates
Experimental: as §1

CYP 450 4A1 (rat) = test: as above; conditions: rat liver cDNA, 80 mg/kg daily on 4 consecutive days, normalized treated/control, mean of 10 replicates
Experimental: as §1

CYP 450 2B1 EST.(rat) = test: as above; conditions: rat liver cDNA, 80 mg/kg daily on 4 consecutive days, normalized treated/control, mean of 10 replicates
Experimental: as §1

CYP 450 2B1 (rat) = test: as above; conditions: rat liver cDNA, 80 mg/kg daily on 4 consecutive days, normalized treated/control, mean of 10 replicates
Experimental: as §1

β-actin (rat) = test: as above; conditions: rat liver cDNA, 80 mg/kg daily on 4 consecutive days, normalized treated/control, mean of 10 replicates
Experimental: as §1

CYP 450 3A1 (human) = test: as above; conditions: rat liver cDNA, 80 mg/kg daily on 4 consecutive days, normalized treated/control, mean of 10 replicates
Experimental: as §1

GAPDH (rat) = test: as above; conditions: rat liver cDNA, 80 mg/kg daily on 4 consecutive days, normalized treated/control, mean of 10 replicates
Experimental: as §1

CYP 450 2B2 (rat) = test: as above; conditions: rat liver cDNA, 80 mg/kg daily on 4 consecutive days, normalized treated/control, mean of 10 replicates
Experimental: as §1

[1] = system: cPM (capture perfect match) oligonucleotide; test: Oligonucleotide microchip hybridization (SNP discrimination), cPM capture spots; assay type: binding; conditions: 30 pM analyte, 30 min incubation, room temperature, fluorescence at resonance position
Experimental: (§2) Sensor platforms (dimensions 18×18 mm2) of the type described with reference to FIG. 2 we first sonicated twice in chlororform (FLUKA, “purum”) and subsequently twice in isopropanol (Merck, “Uvasol”), each 15 min. […] O-xylene was heated to 75° C. […] (stirring). Subsequently, the platforms were washed three times with fresh acetonitrile (Fluka, “HPLC grade”) each for 15 min. Finally the platforms were dried and stored under vacuum. b. Immobilization of Capture Elements
(§3) Two different amino-modified oligonucleotides (capture probes) were printed in a checkerboard-like layout (5×5=25 spots) onto the silanized platforms. […]
(§4) The concentration of the analyte solutions was 30 pM each. f. […] After 30 min of incubation, the platform was washed with 1 ml of HB and a fluorescence image (“PM” in FIG. 9a) was taken in the resonance position of the chip. Subsequently, the bound fluorescence labeled oligonucleotides were removed (stripped) by injection of 2×1 ml of an aqueous 50% urea solution with 2 min of delay between the injections. After additional 2 min the chip was washed by injection of 2×1 ml HB with 2 min delay between the injections and a fluorescence image (“regeneration” in FIG. 9b) was taken in the resonance position of the chip. […] After 30 min of incubation, the platform was again washed with 1 ml of 1B and a fluorescence image (“MM” in FIG. 9c) was taken in the resonance position of the chip. […]

[2] = system: cPM and cMM capture oligonucleotides; test: Oligonucleotide microchip SNP discrimination, cPM versus cMM spots; assay type: binding; conditions: 30 pM analyte, 30 min incubation, room temperature
Experimental: as §2
Two different amino-modified oligonucleotides (capture probes) were printed in a checkerboard-like layout (5×5=25 spots) onto the silanized platforms. A GMS 417 ring-pin arrayer was used for the printing (Genetic Microsystems, Boston, Mass.). The concentration of the oligonucleotides used as capture molecules was 100 nmol/ml. Diameter of the spots was 125 micrometer with 500 micrometer centre-to-centre distance. The 2 oligonucleotides were called cPM (“capture perfect match”) and cMM (“capture mismatch”) and differ only in one base:
cPM and cMM were labeled with an amino group at the 5′ end which enables covalent binding of the oligonucleotides to the epoxy-functionalized platforms. […] Next day the chips were dried and then washed with 1 ml of aqueous 50% urea solution. Alternatively, an aqueous bovine serum albumine solution (BSA, 1 mg/ml) was used. After blocking the chips were flushed with deionized water and then dried with nitrogen flow. c. Detection Set-Up The CCD set-up described in the previous example was used. d. Chip Cartridge The cartridge described in the previous example was used. e. Analytes/Samples […]
The concentration of the analyte solutions was 30 pM each. f. […] After 30 min of incubation, the platform was washed with 1 ml of HB and a fluorescence image (“PM” in FIG. 9a) was taken in the resonance position of the chip. Subsequently, the bound fluorescence labeled oligonucleotides were removed (stripped) by injection of 2×1 ml of an aqueous 50% urea solution with 2 min of delay between the injections. After additional 2 min the chip was washed by injection of 2×1 ml HB with 2 min delay between the injections and a fluorescence image (“regeneration” in FIG. 9b) was taken in the resonance position of the chip. […] After 30 min of incubation, the platform was again washed with 1 ml of 1B and a fluorescence image (“MM” in FIG. 9c) was taken in the resonance position of the chip. […] Data Processing The mean intensity of the 2 different groups of capture spots (cPM and cMM) was calculated for both experiments (incubation of 30 pM PM analyte and 30 pM MM analyte). In addition, the difference of the mean intensity cPM-cMM and the ratio cPM/cMM was calculated. h. […]

[3] = system: cMM (capture mismatch) oligonucleotide; test: Oligonucleotide microchip hybridization (SNP discrimination), cMM capture spots; assay type: binding; conditions: 30 pM analyte, 30 min incubation, room temperature, fluorescence at resonance position
Experimental: as §2, §3, §4

Compound	Fold change CYP 450 3A2 (rat) (CYP 450 3A2 (rat))	Fold change CYP 450 1A1 (rat) (CYP 450 1A1 (rat))	Fold change CYP 450 4A1 (rat) (CYP 450 4A1 (rat))	Fold change CYP 450 2B1 EST.(rat) (CYP 450 2B1 EST.(rat))	Fold change CYP 450 2B1 (rat) (CYP 450 2B1 (rat))	Fold change β-actin (rat) (β-actin (rat))	Fold change CYP 450 3A1 (human) (CYP 450 3A1 (human))	Fold change GAPDH (rat) (GAPDH (rat))	Fold change CYP 450 2B2 (rat) (CYP 450 2B2 (rat))	mean intensity, cPM spots [1] [counts]	difference of the mean intensity cPM − cMM [2] [counts]	ratio cPM/cMM of mean intensity [2]	mean intensity, cMM spots [3] [counts]
CCC1(c2ccccc2)C(=O)NC(=O)NC1=O [phenobarbital, sodium salt]	2.5	1.6	1.6	16	25	2.1	3.2	2.3	32				
Cy5-5′GTGTTAAGGTGT3′ (NTGTTAAGGTGT; 5' {Cy5}, sugars by position, backbone and the base at N not given here) [PM]										1140	1116	48	24
Cy5-5′GTGTTGAGGTGT3′ (NTGTTGAGGTGT; 5' {Cy5}, sugars by position, backbone and the base at N not given here) [MM]										704	−1371	0.34	2075
